In patent US20170008928A1, “NOVEL PEPTIDES AND PEPTIDE DERIVATIVES AND USES THEREOF” (Novo Nordisk A/S, priority 2015, published 2017):
Where two headings read alike, the source gives them in different places. Starred links: 1 amine or outer side, 2 acyl side, 3 side chain; linkers in the order of their positions; H or OH if unused. Non-standard residues stand in square brackets, D forms with d. Residues, ends and D or L forms follow the SMILES beside them. *: point of attachment. Phe(4-CH2SO3H) = N[C@@H](Cc1ccc(CS(=O)(=O)O)cc1)C(=O)O; sY = N[C@@H](Cc1ccc(OS(=O)(=O)O)cc1)C(=O)O; C18 diacid = O=C(O)CCCCCCCCCCCCCCCCC(=O)*; C16 diacid = O=C(O)CCCCCCCCCCCCCCC(=O)*; γGlu = O=C(O)[C@H](CCC(=O)[*:2])N[*:1]; βAsp = O=C(O)[C@H](CC(=O)[*:2])N[*:1]; NMeF = CN[C@@H](Cc1ccccc1)C(=O)O; dNMeD = CN[C@H](CC(=O)O)C(=O)O; Nle = CCCC[C@H](N)C(=O)O; AEEA = NCCOCCOCC(=O)O

Experiments:
[1] = target: T1, human cholecystokinin-1 receptor (CCK-1R) (Homo sapiens, UniProt P32238); test: In vitro receptor binding to CCK-1R, SPA displacement of [125I]-CCK-8s from plasma membranes; details: for CCK-1R binding selectivity (IC50 (CCK-2R)/IC50 (CCK-1R)): ratio of binding IC50 values, >1 = preference for CCK-1R
T1 construct: host or cells: 1321-N1 cells
T1 sequence (P32238 1-428): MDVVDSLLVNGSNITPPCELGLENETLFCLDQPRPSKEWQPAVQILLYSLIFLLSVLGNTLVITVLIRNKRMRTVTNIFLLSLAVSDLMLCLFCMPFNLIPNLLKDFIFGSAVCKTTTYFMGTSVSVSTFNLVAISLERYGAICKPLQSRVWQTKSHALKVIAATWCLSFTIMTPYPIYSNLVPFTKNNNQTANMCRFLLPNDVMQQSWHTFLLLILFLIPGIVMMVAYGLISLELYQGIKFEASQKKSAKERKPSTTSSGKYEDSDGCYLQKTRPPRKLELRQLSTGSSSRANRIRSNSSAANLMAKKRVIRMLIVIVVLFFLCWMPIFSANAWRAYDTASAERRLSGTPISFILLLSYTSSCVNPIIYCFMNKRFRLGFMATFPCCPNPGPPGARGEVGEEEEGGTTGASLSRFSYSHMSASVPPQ
Method: The in vitro binding affinity is a measure of the strength of attraction between a receptor and its ligand.
Displacement of radio ligand was measured as reduction in light emission from SPA beads.
The cells used in these assays were 1321-N1 cells stably expressing the CCK-1R or the CCK-2R (Perkin Elmer product numbers ES-530-A and ES-531-A, respectively see www.perkinelmer.com/Catalog/Product/ID/ES-530-A or -ES-531-A, respectively).
The cells were cultured in an incubator (95% RH (relative humidity), 5% (of standard atmospheric pressure) CO2, 37° C.) in cell culture medium (DMEM (Lonza catalogue BE-12-604F/U1), with 10% (v/v) Foetal Calf Serum (FCS, Gibco catalogue 16140-071), 1% (w/w) Sodium pyruvate (Gibco catalogue 11360-039), 500 μg/ml Geneticin® (G418) (Gibco catalogue 10131-027), 25 μg/ml Zeocin™ (Invitrogen catalogue R250-05), 1% (w/w) Pen/Strep (Gibco catalogue 15140-122)).
Plasma membranes were prepared by Evotec AG Hamburg by use of the ParrBomb (#4635, Parr Instrument Company). Cells were lysed with a lysis buffer (50 mM Tris, 2.5 mM EDTA, pH7) with added protease inhibitors (Complete Proteaseinhibitors EDTA-free (#05056489001, Roche), 1 tablet per 50 mL lysis buffer). The membrane fraction was separated by centrifugation. First, the cell lysate was centrifuged at 1000×g for 10 minutes at 4° C. The pellet was discarded and the supernatant was then centrifuged at 100.000×g for 30 minutes at 4° C. The supernatant was discarded and the pellet was re-suspended in 1 ml/5×10^8 cells ice cold membrane buffer (50 mM Tris, 320 mM Sucrose and Complete Proteaseinhibitors EDTA-free (#05056489001, Roche); pH7.4) and homogenised with dounce homogeniser. The protein concentration was determined using the Pierce™ BCA Protein Assay Kit according to kit manual, and the membrane preparation was adjust to the desired protein concentration with membrane buffer and aliquoted into pre-cooled tubes, snap-frozen in liquid nitrogen, and stored at −80° C.
CCK receptor binding assays were performed in 96-well Optiplates (Cat #6005290, PerkinElmer, Waltham, Mass., USA) in a total volume of 200 μl per well. CCK derivatives in 80% DMSO stock solutions of 800 μM were serially diluted […] in assay buffer (50 mM Tris/HCl, 4.5 mM MgCl2, […], 0.02% Tween 20, 0.25% ovalbumin, 0.1% pluronic F-68, pH 7.4) to final assay concentrations ranging from 10^−5 M (ten μM) to 10^−12 M (one pM).
Fifty μl of reference or test compounds were added to the Optiplates (using technical duplicates, i.e. two wells of each sample, one data point being the average of two wells), followed by addition of 150 μl of the mixture of SPA bead, radio ligand, and plasma membrane. The plates were sealed and incubated in the dark at +22° C. for 2 hours on a IKA MTS plate shaker (IKA-Werke D-79219 Staufen) set at 300 rpm and thereafter centrifuged at 1500 rpm for 10 minutes in a Heraeus Multifuge 3s centrifuge. SPA bead light emission was measured in a TopCount NXT (PerkinElmer) for 2 min/well after a delay of 60 min.
As a measure of compound affinity, calculations were performed in order to determine the half maximal inhibitory concentration (the IC50 value).
The data from the TopCounter were given as counts per minute (CPM). The CPM was plotted as a function of the concentration of compound. Dose-response curves were obtained, and IC50 values were calculated, by a nonlinear three-parameter logistic equation (log(agonist) vs response) with hillslope=−1, and shared top and bottom using the software programme GraphPad Prism v 6.0 (Graph Pad software, La Jolla, Calif., USA). The highest dose tested was 10^−5 M (1×10^7 pM).
The preference of a specific compound for the CCK-1 receptor, or the CCK-1R selectivity, may be defined as IC50 (CCK-2R)/IC50 (CCK-1R).
A minimum of three biological replicates was measured for each test compound on separate assay plates.

[2] = target: T2, human cholecystokinin-2 receptor (CCK-2R) (Homo sapiens, UniProt P32239); test: In vitro receptor binding to CCK-2R, SPA displacement of [125I]-CCK-8s from plasma membranes
T2 construct: host or cells: 1321-N1 cells (plasma membranes prepared by Evotec AG Hamburg)
T2 sequence (P32239 1-447): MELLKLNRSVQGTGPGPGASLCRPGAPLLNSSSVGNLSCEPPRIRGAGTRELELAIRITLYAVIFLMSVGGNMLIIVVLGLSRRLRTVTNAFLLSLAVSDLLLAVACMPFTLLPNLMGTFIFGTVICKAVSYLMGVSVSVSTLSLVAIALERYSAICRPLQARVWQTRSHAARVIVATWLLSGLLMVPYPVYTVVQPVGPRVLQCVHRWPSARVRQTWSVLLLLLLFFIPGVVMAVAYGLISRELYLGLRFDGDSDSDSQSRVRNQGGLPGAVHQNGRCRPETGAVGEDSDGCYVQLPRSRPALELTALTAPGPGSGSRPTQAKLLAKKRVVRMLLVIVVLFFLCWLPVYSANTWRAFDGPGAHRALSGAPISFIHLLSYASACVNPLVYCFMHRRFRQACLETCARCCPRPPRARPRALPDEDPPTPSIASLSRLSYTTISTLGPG

[3] = target: T2, human cholecystokinin-2 receptor (CCK-2R); test: In vitro potency on CCK-2R, whole cell functional assay (IP1 accumulation, IP-One HTRF); type: cell-based
[4] = target: T1, human cholecystokinin-1 receptor (CCK-1R); test: In vitro potency on CCK-1R, whole cell functional assay (IP1 accumulation, IP-One HTRF); type: cell-based
[5] = ratio of functional EC50 values, >1 = preference for CCK-1R
[6] = 1321-N1 cells stably expressing CCK-1R, IP1 accumulation, average of min. three replicates, read-out: EC50 (CCK-1R)

CCK-1R binding selectivity (IC50 (CCK-2R)/IC50 (CCK-1R)) [1] | CCK-1R selectivity (EC50 (CCK-2R)/EC50 (CCK-1R)) [4, 5] | EC50 [4, 6] | IC50 ([1]; displacement of [125I]-CCK-8s, plasma membranes of 1321-N1 cells expressing CCK-1R, read-out: IC50 (CCK-1R)) | EC50 ([3]; 1321-N1 cells stably expressing CCK-2R, IP1 accumulation, highest dose tested 1×10^6 pM, read-out: EC50 (CCK-2R)) | Structure (SMILES) | IC50 [1] | IC50 [2] | EC50 [3] | EC50 [4] | CCK-1R selectivity (EC50 (CCK-2R)/EC50 (CCK-1R)) [4]
 |  |  |  |  | CCCC[C@H](NC(=O)[C@H](Cc1c[nH]c2ccccc12)NC(=O)CNC(=O)[C@H](CC(C)C)NC(=O)[C@H](Cc1ccc(CS(=O)(=O)O)cc1)NC(=O)[C@H](CC(=O)O)NC(=O)COCCOCCNC(=O)COCCOCCNC(=O)CC[C@H](NC(=O)CCCCCCCCCCCCCCC(=O)O)C(=O)O)C(=O)N(C)[C@H](CC(=O)O)C(=O)N(C)[C@@H](Cc1ccccc1)C(N)=O [Example 6, 2-[2-[2-[[2-[2-[2-[[(4S)-4-Carboxy-4-(15-carboxypentadecanoylamino)butanoyl]amino]ethoxy]ethoxy]acetyl]amino]ethoxy]ethoxy]acetyl-Asp-Phe(4-sulfomethyl)-Leu-Gly-Trp-Nle-DMeAsp-MePhe-amide] ({C16 diacid-γGlu-AEEA-AEEA}-D[Phe(4-CH2SO3H)]LGW[Nle][dNMeD][NMeF]-NH2) | 0.2 nM | > 10000 nM | > 1000 nM | 0.2 nM | 
87000 | 960 |  |  |  | CCCC[C@H](NC(=O)[C@H](Cc1c[nH]c2ccccc12)NC(=O)CNC(=O)[C@H](Cc1ccccc1)NC(=O)[C@H](Cc1ccc(OS(=O)(=O)O)cc1)NC(=O)[C@H](CC(=O)O)NC(=O)COCCOCCNC(=O)COCCOCCNC(=O)CC[C@H](NC(=O)CCCCCCCCCCCCCCCCC(=O)O)C(=O)O)C(=O)N(C)[C@H](CC(=O)O)C(=O)N(C)[C@@H](Cc1ccccc1)C(N)=O [Example 44, 2-[2-[2-[[2-[2-[2-[[(4S)-4-Carboxy-4-(17-carboxyheptadecanoylamino)butanoyl]amino]ethoxy]ethoxy]acetyl]amino]ethoxy]ethoxy]acetyl-Asp-sTyr-Phe-Gly-Trp-Nle-DMeAsp-MePhe-amide] ({C18 diacid-γGlu-AEEA-AEEA}-D[sY]FGW[Nle][dNMeD][NMeF]-NH2) |  |  |  |  | 
82000 | 3000 | 0.31 nM |  |  | CCCC[C@H](NC(=O)[C@H](Cc1c[nH]c2ccccc12)NC(=O)CNC(=O)[C@H](CO)NC(=O)[C@H](Cc1ccc(OS(=O)(=O)O)cc1)NC(=O)[C@H](CC(=O)O)NC(=O)COCCOCCNC(=O)COCCOCCNC(=O)CC[C@H](NC(=O)CCCCCCCCCCCCCCCCC(=O)O)C(=O)O)C(=O)N(C)[C@H](CC(=O)O)C(=O)N(C)[C@@H](Cc1ccccc1)C(N)=O [Example 45, 2-[2-[2-[[2-[2-[2-[[(4S)-4-Carboxy-4-(17-carboxyheptadecanoylamino)butanoyl]amino]ethoxy]ethoxy]acetyl]amino]ethoxy]ethoxy]acetyl-Asp-sTyr-Ser-Gly-Trp-Nle-DMeAsp-MePhe-amide] ({C18 diacid-γGlu-AEEA-AEEA}-D[sY]SGW[Nle][dNMeD][NMeF]-NH2) |  |  |  |  | 
4100 | 440 | 0.22 nM |  |  | CCCC[C@H](NC(=O)[C@H](Cc1c[nH]c2ccccc12)NC(=O)CNC(=O)[C@H](C)NC(=O)[C@H](Cc1ccc(OS(=O)(=O)O)cc1)NC(=O)[C@H](CC(=O)O)NC(=O)COCCOCCNC(=O)COCCOCCNC(=O)CC[C@H](NC(=O)CCCCCCCCCCCCCCCCC(=O)O)C(=O)O)C(=O)N(C)[C@H](CC(=O)O)C(=O)N(C)[C@@H](Cc1ccccc1)C(N)=O [Example 46, 2-[2-[2-[[2-[2-[2-[[(4S)-4-Carboxy-4-(17-carboxyheptadecanoylamino)butanoyl]amino]ethoxy]ethoxy]acetyl]amino]ethoxy]ethoxy]acetyl-Asp-sTyr-Ala-Gly-Trp-Nle-DMeAsp-MePhe-amide] ({C18 diacid-γGlu-AEEA-AEEA}-D[sY]AGW[Nle][dNMeD][NMeF]-NH2) |  |  |  |  | 
59000 |  | 0.19 nM | 0.049 nM | > 1000 nM | CCCC[C@H](NC(=O)[C@H](Cc1ccc(CS(=O)(=O)O)cc1)NC(=O)C[C@H](N)C(=O)O)C(=O)NCC(=O)N[C@@H](Cc1c[nH]c2ccccc12)C(=O)N[C@@H](CCCC)C(=O)N(C)[C@H](CC(=O)O)C(=O)N(C)[C@@H](Cc1ccccc1)C(N)=O [Example 75, bAsp-Phe(4-sulfomethyl)-Nle-Gly-Trp-Nle-DMeAsp-MePhe-amide] (βAsp-[Phe(4-CH2SO3H)][Nle]GW[Nle][dNMeD][NMeF]-NH2) |  |  |  |  | 

Structure (SMILES) | CCK-1R binding selectivity (IC50 (CCK-2R)/IC50 (CCK-1R)) [1] | CCK-1R selectivity (EC50 (CCK-2R)/EC50 (CCK-1R)) [4, 5] | EC50 [4, 6] | IC50 ([1]; displacement of [125I]-CCK-8s, plasma membranes of 1321-N1 cells expressing CCK-1R, read-out: IC50 (CCK-1R)) | EC50 ([3]; 1321-N1 cells stably expressing CCK-2R, IP1 accumulation, highest dose tested 1×10^6 pM, read-out: EC50 (CCK-2R)) | IC50 [1] | IC50 [2] | EC50 [3] | EC50 [4] | CCK-1R selectivity (EC50 (CCK-2R)/EC50 (CCK-1R)) [4]
CC(C)C[C@H](NC(=O)[C@H](Cc1ccc(OS(=O)(=O)O)cc1)NC(=O)[C@H](CC(=O)O)NC(=O)COCCOCCNC(=O)COCCOCCNC(=O)CC[C@H](NC(=O)CCCCCCCCCCCCCCCCC(=O)O)C(=O)O)C(=O)NCC(=O)N[C@@H](Cc1c[nH]c2ccccc12)C(=O)N[C@H](C(=O)N(C)[C@H](CC(=O)O)C(=O)N(C)[C@@H](Cc1ccccc1)C(N)=O)C(C)C [Example 14, 2-[2-[2-[[2-[2-[2-[[(4S)-4-Carboxy-4-(17-carboxyheptadecanoylamino)butanoyl]amino]ethoxy]ethoxy]acetyl]amino]ethoxy]ethoxy]acetyl-Asp-sTyr-Leu-Gly-Trp-Val-DMeAsp-MePhe-amide] ({C18 diacid-γGlu-AEEA-AEEA}-D[sY]LGWV[dNMeD][NMeF]-NH2) | 21000 |  |  |  |  | 0.31 nM | 6400 nM | 730 nM | 0.14 nM | 5100
